Results as given in patent US20020026053A1, “Novel 3-(substituted) -2- indolinones compounds and use thereof as inhibitors of protein kinase activity” (priority 1997, published 2002).

Biological target: T1, Met receptor (EGFR/Met chimeric cells, EMR) (Homo sapiens, UniProt P08581)
T1 construct: expressed in transfected cells; the other entry of the earlier key: EGFR (P00533, Epidermal growth factor receptor)
Assay: Met Autophosphorylation Assay
Assay type: biochemical
Settings: protocol P.130
In short: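 Met phosphorylation was measured by capture ELISA. Lysates (90 μg/100 μl, HNTG plus 1 mM PMSF) from transiently transfected EGFR/Met chimera (EMR) cells were bound for 60 min at room temperature to wells holding rabbit anti-Met (C-28) on goat anti-rabbit coat. Phosphotyrosine was the read-out.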

T1 sequence (P08581 with tags, fused parts or gaps): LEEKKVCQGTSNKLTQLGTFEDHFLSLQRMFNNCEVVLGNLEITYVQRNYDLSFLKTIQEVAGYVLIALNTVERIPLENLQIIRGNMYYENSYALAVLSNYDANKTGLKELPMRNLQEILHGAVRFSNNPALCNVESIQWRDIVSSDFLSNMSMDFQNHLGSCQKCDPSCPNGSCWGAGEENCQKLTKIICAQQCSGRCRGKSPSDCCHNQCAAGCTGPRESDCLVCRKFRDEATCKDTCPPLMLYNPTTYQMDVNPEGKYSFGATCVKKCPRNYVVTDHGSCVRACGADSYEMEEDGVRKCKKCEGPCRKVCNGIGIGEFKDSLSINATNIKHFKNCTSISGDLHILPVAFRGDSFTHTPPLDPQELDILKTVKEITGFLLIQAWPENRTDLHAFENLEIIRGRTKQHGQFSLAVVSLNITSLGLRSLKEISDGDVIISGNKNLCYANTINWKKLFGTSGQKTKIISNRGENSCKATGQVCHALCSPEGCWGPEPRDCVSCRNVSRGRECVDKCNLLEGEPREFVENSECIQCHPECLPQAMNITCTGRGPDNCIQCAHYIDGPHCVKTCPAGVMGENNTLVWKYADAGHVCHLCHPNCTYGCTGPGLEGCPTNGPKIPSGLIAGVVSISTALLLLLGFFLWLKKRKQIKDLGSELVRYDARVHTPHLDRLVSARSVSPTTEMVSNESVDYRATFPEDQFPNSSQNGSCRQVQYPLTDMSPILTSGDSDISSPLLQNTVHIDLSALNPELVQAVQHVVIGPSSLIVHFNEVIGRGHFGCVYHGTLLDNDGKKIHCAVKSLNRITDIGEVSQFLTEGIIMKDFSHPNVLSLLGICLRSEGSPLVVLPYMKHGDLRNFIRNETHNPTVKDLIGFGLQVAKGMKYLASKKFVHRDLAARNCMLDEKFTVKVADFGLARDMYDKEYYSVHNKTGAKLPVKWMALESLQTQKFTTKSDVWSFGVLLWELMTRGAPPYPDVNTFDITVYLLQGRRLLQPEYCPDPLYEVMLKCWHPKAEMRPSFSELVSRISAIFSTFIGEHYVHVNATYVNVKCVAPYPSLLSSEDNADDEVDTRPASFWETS

SMILES: CNS(=O)(=O)c1ccc2c(c1)C(=Cc1ccsc1)C(=O)N2 [10740/D05]
- Met Kinase % Inhibition (P.130): 39.3%

SMILES: CNS(=O)(=O)c1ccc2c(c1)C(=Cc1ccc3ccccc3n1)C(=O)N2 [10740/D06]
- Met Kinase % Inhibition (P.130): 41.8%

SMILES: CNS(=O)(=O)c1ccc2c(c1)C(=Cc1cn(C)c3ccccc13)C(=O)N2 [10740/D07]
- Met Kinase % Inhibition (P.130): 27.3%

SMILES: CNS(=O)(=O)c1ccc2c(c1)C(=Cc1c(C)[nH]c3ccccc13)C(=O)N2 [10740/D08]
- Met Kinase % Inhibition (P.130): 30.3%

SMILES: CNS(=O)(=O)c1ccc2c(c1)C(=Cc1cc(Br)cs1)C(=O)N2 [10740/D10]
- Met Kinase % Inhibition (P.130): 16.1%

SMILES: CCCCOc1ccc(C=C2C(=O)Nc3ccc(S(=O)(=O)NC)cc32)cc1 [10740/D11]
- Met Kinase % Inhibition (P.130): −9.1%

SMILES: O=C1Nc2ccc(S(=O)(=O)Nc3ccc(C(F)(F)F)cc3)cc2C1=Cc1cnc2ccccc2c1 [10740/E02]
- Met Kinase % Inhibition (P.130): 48.2%

SMILES: O=C1Nc2ccc(S(=O)(=O)Nc3ccc(C(F)(F)F)cc3)cc2C1=Cc1ccnc2ccccc12 [10740/E03]
- Met Kinase % Inhibition (P.130): 66.4%

SMILES: COC1CCCN1C=C1C(=O)Nc2ccc(S(=O)(=O)Nc3ccc(C(F)(F)F)cc3)cc21 (stereo not drawn) [10740/E04]
- Met Kinase % Inhibition (P.130): 41.8%

SMILES: O=C1Nc2ccc(S(=O)(=O)Nc3ccc(C(F)(F)F)cc3)cc2C1=Cc1ccsc1 [10740/E05]
- Met Kinase % Inhibition (P.130): 75.6%

SMILES: O=C1Nc2ccc(S(=O)(=O)Nc3ccc(C(F)(F)F)cc3)cc2C1=Cc1ccc2ccccc2n1 [10740/E06]
- Met Kinase % Inhibition (P.130): 16.6%

SMILES: Cn1cc(C=C2C(=O)Nc3ccc(S(=O)(=O)Nc4ccc(C(F)(F)F)cc4)cc32)c2ccccc21 [10740/E07]
- Met Kinase % Inhibition (P.130): 19.7%

SMILES: Cc1[nH]c2ccccc2c1C=C1C(=O)Nc2ccc(S(=O)(=O)Nc3ccc(C(F)(F)F)cc3)cc21 [10740/E08]
- Met Kinase % Inhibition (P.130): 39.0%

SMILES: O=C1Nc2ccc(S(=O)(=O)Nc3ccc(C(F)(F)F)cc3)cc2C1=Cc1cc(Br)cs1 [10740/E10]
- Met Kinase % Inhibition (P.130): 61.9%

SMILES: CCCCOc1ccc(C=C2C(=O)Nc3ccc(S(=O)(=O)Nc4ccc(C(F)(F)F)cc4)cc32)cc1 [10740/E11]
- Met Kinase % Inhibition (P.130): −16.9%

SMILES: O=C1Nc2ccc(S(=O)(=O)N3CCOCC3)cc2C1=Cc1cnc2ccccc2c1 [10740/F02]
- Met Kinase % Inhibition (P.130): 59.4%

SMILES: O=C1Nc2ccc(S(=O)(=O)N3CCOCC3)cc2C1=Cc1ccnc2ccccc12 [10740/F03]
- Met Kinase % Inhibition (P.130): 32.8%

SMILES: COC1CCCN1C=C1C(=O)Nc2ccc(S(=O)(=O)N3CCOCC3)cc21 (stereo not drawn) [10740/F04]
- Met Kinase % Inhibition (P.130): −5.2%

SMILES: O=C1Nc2ccc(S(=O)(=O)N3CCOCC3)cc2C1=Cc1ccsc1 [10740/F05]
- Met Kinase % Inhibition (P.130): 52.1%

SMILES: O=C1Nc2ccc(S(=O)(=O)N3CCOCC3)cc2C1=Cc1ccc2ccccc2n1 [10740/F06]
- Met Kinase % Inhibition (P.130): 25.3%

SMILES: Cn1cc(C=C2C(=O)Nc3ccc(S(=O)(=O)N4CCOCC4)cc32)c2ccccc21 [10740/F07]
- Met Kinase % Inhibition (P.130): 28.4%

SMILES: Cc1[nH]c2ccccc2c1C=C1C(=O)Nc2ccc(S(=O)(=O)N3CCOCC3)cc21 [10740/F08]
- Met Kinase % Inhibition (P.130): 35.9%

SMILES: O=C1Nc2ccc(S(=O)(=O)N3CCOCC3)cc2C1=Cc1cc(Br)cs1 [10740/F10]
- Met Kinase % Inhibition (P.130): 58.3%

SMILES: CCCCOc1ccc(C=C2C(=O)Nc3ccc(S(=O)(=O)N4CCOCC4)cc32)cc1 [10740/F11]
- Met Kinase % Inhibition (P.130): 42.9%

SMILES: O=C1Nc2ccc(CCCl)cc2C1=Cc1cnc2ccccc2c1 [10740/G02]
- Met Kinase % Inhibition (P.130): 55.2%

SMILES: O=C1Nc2ccc(CCCl)cc2C1=Cc1ccnc2ccccc12 [10740/G03]
- Met Kinase % Inhibition (P.130): 34.8%

SMILES: COC1CCCN1C=C1C(=O)Nc2ccc(CCCl)cc21 (stereo not drawn) [10740/G04]
- Met Kinase % Inhibition (P.130): 9.1%

SMILES: O=C1Nc2ccc(CCCl)cc2C1=Cc1ccsc1 [10740/G05]
- Met Kinase % Inhibition (P.130): 30.3%

SMILES: O=C1Nc2ccc(CCCl)cc2C1=Cc1ccc2ccccc2n1 [10740/G06]
- Met Kinase % Inhibition (P.130): 25.0%

SMILES: Cn1cc(C=C2C(=O)Nc3ccc(CCCl)cc32)c2ccccc21 [10740/G07]
- Met Kinase % Inhibition (P.130): 10.8%

SMILES: Cc1[nH]c2ccccc2c1C=C1C(=O)Nc2ccc(CCCl)cc21 [10740/G08]
- Met Kinase % Inhibition (P.130): 33.4%

SMILES: O=C1Nc2ccc(CCCl)cc2C1=Cc1cc(Br)cs1 [10740/G10]
- Met Kinase % Inhibition (P.130): 19.4%

SMILES: CCCCOc1ccc(C=C2C(=O)Nc3ccc(CCCl)cc32)cc1 [10740/G11]
- Met Kinase % Inhibition (P.130): 13.3%

SMILES: Cc1c(Br)cc(Br)c2c1C(=Cc1cnc3ccccc3c1)C(=O)N2 [10740/H02]
- Met Kinase % Inhibition (P.130): 28.7%

SMILES: Cc1c(Br)cc(Br)c2c1C(=Cc1ccnc3ccccc13)C(=O)N2 [10740/H03]
- Met Kinase % Inhibition (P.130): 17.5%

SMILES: COC1CCCN1C=C1C(=O)Nc2c(Br)cc(Br)c(C)c21 (stereo not drawn) [10740/H04]
- Met Kinase % Inhibition (P.130): 30.9%

SMILES: Cc1c(Br)cc(Br)c2c1C(=Cc1ccsc1)C(=O)N2 [10740/H05]
- Met Kinase % Inhibition (P.130): 25.6%

SMILES: Cc1c(Br)cc(Br)c2c1C(=Cc1ccc3ccccc3n1)C(=O)N2 [10740/H06]
- Met Kinase % Inhibition (P.130): 33.4%

SMILES: Cc1c(Br)cc(Br)c2c1C(=Cc1cn(C)c3ccccc13)C(=O)N2 [10740/H07]
- Met Kinase % Inhibition (P.130): 1.5%

SMILES: Cc1[nH]c2ccccc2c1C=C1C(=O)Nc2c(Br)cc(Br)c(C)c21 [10740/H08]
- Met Kinase % Inhibition (P.130): 28.1%

SMILES: Cc1c(Br)cc(Br)c2c1C(=Cc1cc(Br)cs1)C(=O)N2 [10740/H10]
- Met Kinase % Inhibition (P.130): 43.7%

SMILES: CCCCOc1ccc(C=C2C(=O)Nc3c(Br)cc(Br)c(C)c32)cc1 [10740/H11]
- Met Kinase % Inhibition (P.130): 17.2%
